Measurements published in US20240208909A1, “SUBSTITUTED QUINOLINE DERIVATIVES HAVING SOS1 INHIBITION ACTIVITIES AND USES THEREOF” (Accutar Biotechnology Inc., priority 2022, published 2024).
pIC50: −log10 of the molar value.

Assays:
SOS1/KRAS-G12D = SOS1/KRAS-G12D (Homo sapiens (Human), UniProt Q07889); assay: SOS1/KRAS-G12D binding inhibition assay (AlphaScreen); conditions: GST-SOS1 and 6*His KRAS-G12D, read-out: KrasG12D/SOS1 binding IC50
Procedure: Example 22: SOS1/KRAS-G12D Binding Inhibition Assay
SOS1 binding affinity of candidate compounds was measured by monitoring the interaction of SOS1 with KRAS-G12D in the presence of the test compound. Briefly, 5 nM GST tagged SOS1 proteins (final concentration) were pre-incubated with 50 nM 6*His tagged KRAS-G12D proteins (final concentration) in an assay buffer containing 10 mM HEPES, pH 7.4, 150 mM NaCl, 1 mM DTT, 5 mM MgCl2, 0.1% Tween-20, and 0.05% BSA for 30 minutes. The test compounds in 2% DMSO (final concentration) at various concentrations were then added to the reaction mixture and incubated for another 30 minutes at 4° C. 5 ug/ml GSH AlphaScreen donor beads (PerkinElmer, 6765300) and 5 ug/ml nickel chelate (Ni-NTA) AlphaScreen acceptor beads (PerkinElmer, 6760619C) (final concentrations) were then added to the mixture. After an incubation of 2 hours at 4° C., the fluorescent signals were obtained on the EnVision® 2105 Multilabel Plate Reader (PerkinElmer).
Raw AlphaScreen data were converted to a percentage of inhibition (relative to DMSO) using the following equations: • a) For a given test compound concentration X:
Signal (X)=Signal (SOS1 & KRAS-G12D & compound)-Signal (buffer & KRAS-G12D & compound)
Percentage of inhibition at concentration X=[1−Signal (X)/Signal (DMSO)]*100% b)
The IC50 values were determined by nonlinear regression of plots of [inhibitor] vs. percentage of inhibition with variable slope, analyzed using GraphPad Prism 9.

[1] = system: Phospho-ERK1/2 in DLD1 cells; assay: Phospho-ERK1/2 expression inhibition in DLD1 cells; format: cell-based; conditions: Homo sapiens, DLD-1, 4 hours, read-out: DLD1 pERK IC50
Procedure: Example 23: Phospho-ERK1/2 Expression Inhibition in DLD1 Cells
DLD1 cells were obtained from American Type Culture Collection (ATCC). DLD1 cells were plated in 96-well plates (VWR #10062-900, or Corning #3904) in 90 uL culture medium at a density of 15,000 cells/well in the RPM11640 growth medium containing 10% FBS and 1% Penicillin Streptomycin, and then incubated at 37° C. overnight. The following day, the test compound was administered to the cells by using 1000×x compound stock solution prepared in DMSO at various concentrations. 1000× compound stock solution was first diluted in culturing medium to 10×, then 10 uL compound medium was added to each well in the cell plates. After administration of the compound, the cells were then incubated at 37° C. for 4 hours. Upon completion, the cells were washed with PBS briefly. 150 uL/well of 4% formaldehyde was added and the plates were incubated at room temperature for 20 mins. The cells were washed with PBS briefly, and permeabilized with 150 uL/well of ice cold 100% methanol for 10 mins. The cells were washed with PBS briefly and blocked with 100 uL/well LI-COR blocking buffer for 1 hr at room temperature with gentle shaking. The cells were incubated overnight at 4° C. with 50 uL primary antibody rabbit anti-Phospho-ERK1/2 (1: 500, Cell Signaling, #4370) diluted in Intercept Blocking Buffer (LI-COR, #927-60001) containing 0.1% Tween 20. The next day, the cells were washed with 200 uL PBS containing 0.1% Tween 20, 5×5 mins at room temperature with gentle shaking, and incubated with 50 uL secondary antibody, IRDye® 800CW Goat anti-Rabbit IgG (LI-COR, #926-32211), 1:1000, in LI-COR blocking buffer with 0.2% Tween 20 for 1 hr at room temperature with gentle shaking. The cells were washed with 200 uL PBS containing 0.1% Tween 20, 5×5 mins at room temperature with gentle shaking. The cells were washed with PBS for 5 mins. 100 uL fresh PBS was added to each well and the plates were imaged on a LI-COR Odyssey CLX plate reader.

K562 cells = assay: Cell growth inhibition of K562 cells (CellTiter-Glo); format: cell-based; conditions: Homo sapiens, 120 h, 5 days
Procedure: Example 24: Cell Growth Inhibition of K562 Cells
K562 cells were obtained from American Type Culture Collection (ATCC). For cell growth assay, K562 cells were seeded in 96-well plates at 1000 cells/well in 90 μl of RPM11640 growth medium containing 10% FBS and 1% Penicillin Streptomycin, and then incubated at 37° C. for 1 hour. The test compound was administered to the cells by using 1000× compound stock solution prepared in DMSO at various concentrations. 1000× compound stock solution was first diluted in culturing medium to 10×, then 10 uL compound medium was added to each well in the cell plates. After administration of the compound, the cells were then incubated at 37° C. for 5 days. Upon completion, the plates were equilibrated at room temperature for approximately 10 minutes. 100 ul of CellTiter-Glo® Reagent (Promega) was added to each well. The plates were then incubated at room temperature for 10 minutes and luminescence was recorded by EnSpire plate reader (PerkinElmer).

Sequence of SOS1/KRAS-G12D (Q07889 564-1049 limits assumed): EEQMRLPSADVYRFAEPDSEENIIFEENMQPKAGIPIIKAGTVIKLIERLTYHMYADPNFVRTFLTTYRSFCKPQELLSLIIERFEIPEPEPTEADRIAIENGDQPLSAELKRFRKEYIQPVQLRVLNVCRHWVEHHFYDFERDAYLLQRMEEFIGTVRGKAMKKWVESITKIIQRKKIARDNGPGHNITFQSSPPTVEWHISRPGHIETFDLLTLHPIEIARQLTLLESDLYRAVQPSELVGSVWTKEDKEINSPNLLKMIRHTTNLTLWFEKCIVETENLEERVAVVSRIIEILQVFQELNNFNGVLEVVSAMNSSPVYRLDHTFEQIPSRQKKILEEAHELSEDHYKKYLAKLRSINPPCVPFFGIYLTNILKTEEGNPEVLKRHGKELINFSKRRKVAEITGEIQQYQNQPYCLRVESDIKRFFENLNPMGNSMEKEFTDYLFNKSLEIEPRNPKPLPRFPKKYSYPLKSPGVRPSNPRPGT

SMILES	pIC50 (SOS1/KRAS-G12D)	pIC50 [1]	GI50 (K562 cells) [nM]
CC(=O)N1CCCN(c2ccc3nccc(N[C@H](C)c4cccc(C(F)(F)F)c4C)c3c2)CC1 [Compound 62, (R)-1-(4-(4-((1-(2-methyl-3-(trifluoromethyl)phenyl)ethyl)amino)quinolin-6-yl)-1,4-diazepan-1-yl)ethan-1-one]	< 7.00	< 6.30	> 500
C[C@@H](Nc1ccnc2ccc(N3CC[C@@H](O)C3)cc12)c1cccc(C(F)F)c1F [Compound 42, (R)-1-(4-(((R)-1-(3-(difluoromethyl)-2-fluorophenyl)ethyl)amino)quinolin-6-yl)pyrrolidin-3-ol]	≥ 8.00	≥ 6.82	≤ 100
COc1cc2nccc(N[C@H](C)c3cccc(C(F)(F)F)c3C)c2cc1N1CCN(C(=O)C2COC2)CC1 [Compound 47]	7.00 to 8.00	< 6.30	100 to 500
CC(=O)N1CCC(O)(c2ccc3nccc(N[C@H](C)c4cccc(C(F)F)c4F)c3c2)C1 (stereo partly drawn) [Compound 83, 1-(3-(4-(((R)-1-(3-(difluoromethyl)-2-fluorophenyl)ethyl)amino)quinolin-6-yl)-3-hydroxypyrrolidin-1-yl)ethan-1-one]	≥ 8.00	6.30 to 6.82	≤ 100
CN[C@@H]1CCN(c2ccc3nccc(N[C@H](C)c4cccc(C(F)F)c4F)c3c2)C1 [Compound 44, N-((R)-1-(3-(difluoromethyl)-2-fluorophenyl)ethyl)-6-((R)-3-(methylamino)pyrrolidin-1-yl)quinolin-4-amine]	≥ 8.00	< 6.30	≤ 100
Cc1c([C@@H](C)Nc2ccnc3ccc(N4CCC(N(C)C)CC4)cc23)cccc1C(F)(F)F [Compound 32, (R)-6-(4-(dimethylamino)piperidin-1-yl)-N-(1-(2-methyl-3-(trifluoromethyl)phenyl)ethyl)quinolin-4-amine]	7.00 to 8.00	< 6.30	100 to 500
Cc1c([C@@H](C)Nc2ccnc3ccc(N4CCN(C(=O)C5CC5)CC4)cc23)cccc1C(F)(F)F [Compound 26, (R)-cyclopropyl(4-(4-((1-(2-methyl-3-(trifluoromethyl)phenyl)ethyl)amino)quinolin-6-yl)piperazin-1-yl)methanone]	7.00 to 8.00	< 6.30	100 to 500
Cc1cc(N[C@H](C)c2cccc(C(F)(F)F)c2C)c2cc(N3CCN(C(=O)C4CCOC4)CC3)ccc2n1 (stereo partly drawn) [Compound 4, (4-(2-methyl-4-(((R)-1-(2-methyl-3-(trifluoromethyl)phenyl)ethyl)amino)quinolin-6-yl)piperazin-1-yl)(tetrahydrofuran-3-yl)methanone]	7.00 to 8.00	< 6.30	100 to 500
COC1(c2ccc3nccc(N[C@H](C)c4cccc(C(F)(F)F)c4C)c3c2)CCN(C(=O)CC#N)CC1 [Compound 77, (R)-3-(4-methoxy-4-(4-((1-(2-methyl-3-(trifluoromethyl)phenyl)ethyl)amino)quinolin-6-yl)piperidin-1-yl)-3-oxopropanenitrile]	7.00 to 8.00	6.30 to 6.82	> 500
CNC1CCN(c2ccc3nccc(N[C@H](C)c4cccc(C(F)(F)F)c4C)c3c2)CC1 [Compound 28, (R)-N-(1-(2-methyl-3-(trifluoromethyl)phenyl)ethyl)-6-(4-(methylamino)piperidin-1-yl)quinolin-4-amine]	7.00 to 8.00	< 6.30	> 500
CC(=O)N1C2CC1CN(c1ccc3nccc(N[C@H](C)c4cccc(C(F)(F)F)c4C)c3c1)C2 [Compound 64, 1-(3-(4-(((R)-1-(2-methyl-3-(trifluoromethyl)phenyl)ethyl)amino)quinolin-6-yl)-3,6-diazabicyclo[3.1.1]heptan-6-yl)ethan-1-one]	7.00 to 8.00	< 6.30	> 500
Cc1c([C@@H](C)Nc2ccnc3ccc(N4CCCNCC4)cc23)cccc1C(F)(F)F [Compound 63, (R)-6-(1,4-diazepan-1-yl)-N-(1-(2-methyl-3-(trifluoromethyl)phenyl)ethyl)quinolin-4-amine]	7.00 to 8.00	< 6.30	> 500
C[C@@H](Nc1ccnc2c(F)cc(N3CC[C@@H](N)C3)cc12)c1cccc(C(F)F)c1F [Compound 30, 6-((R)-3-aminopyrrolidin-1-yl)-N-((R)-1-(3-(difluoromethyl)-2-fluorophenyl)ethyl)-8-fluoroquinolin-4-amine]	7.00 to 8.00	< 6.30	100 to 500
Cc1c([C@@H](C)Nc2ccnc3ccc(N4CCN(C(=O)C(C)C)CC4)cc23)cccc1C(F)(F)F [Compound 46, (R)-2-methyl-1-(4-(4-((1-(2-methyl-3-(trifluoromethyl)phenyl)ethyl)amino)quinolin-6-yl)piperazin-1-yl)propan-1-one]	7.00 to 8.00	6.30 to 6.82	100 to 500
COc1cc2nccc(N[C@H](C)c3cccc(C(F)F)c3F)c2cc1C1(OC)CCN(C(C)=O)CC1 [Compound 73, (R)-1-(4-(4-((1-(3-(difluoromethyl)-2-fluorophenyl)ethyl)amino)-7-methoxyquinolin-6-yl)-4-methoxypiperidin-1-yl)ethan-1-one]	≥ 8.00	< 6.30	> 500
Cc1c([C@@H](C)Nc2ccnc3ccc(N4CC5(CCN(C)C5=O)C4)cc23)cccc1C(F)(F)F [Compound 21, (R)-6-methyl-2-(4-((1-(2-methyl-3-(trifluoromethyl)phenyl)ethyl)amino)quinolin-6-yl)-2,6-diazaspiro[3.4]octan-5-one]	< 7.00	< 6.30	> 500
Cc1c([C@@H](C)Nc2ccnc3ccc(N4CCN(CC(F)(F)F)CC4)cc23)cccc1C(F)(F)F [Compound 52, (R)-N-(1-(2-methyl-3-(trifluoromethyl)phenyl)ethyl)-6-(4-(2,2,2-trifluoroethyl)piperazin-1-yl)quinolin-4-amine]	< 7.00	< 6.30	> 500
CO[C@]1(c2ccc3nccc(N[C@H](C)c4cccc(C(F)F)c4F)c3c2)CCN(C(=O)C2CC2)C1 [Compound 96, cyclopropyl((S)-3-(4-(((R)-1-(3-(difluoromethyl)-2-fluorophenyl)ethyl)amino)quinolin-6-yl)-3-methoxypyrrolidin-1-yl)methanone]	≥ 8.00	6.30 to 6.82	≤ 100
CO[C@]1(c2ccc3nccc(N[C@H](C)c4cccc(C(F)F)c4F)c3c2)CCN(C(=O)N(C)C)C1 [Compound 98, (S)-3-(4-(((R)-1-(3-(difluoromethyl)-2-fluorophenyl)ethyl)amino)quinolin-6-yl)-3-methoxy-N,N-dimethylpyrrolidine-1-carboxamide]	≥ 8.00	< 6.30	100 to 500
